Laboratory results from patent US12018023B2 (NERVIANO MEDICAL SCIENCES S.R.L., priority 2018, dated 2024).

Columns and labels:
Format in all cases: biochemical
[1] = target: T1, IDH1^R132H homodimer enzyme (Homo sapiens, UniProt O75874, R132H); assay: NADPH depletion assay, IDH1 R132H
T1 construct: purchased not specified
Outline: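 IDH1 R132H enzyme (8 nM as diluted) in Tris-HCl pH 7.6 with 10 mM MgCl2, 0.001% Triton X-100 and 4 mM β-mercaptoethanol is preincubated 15 min at RT with compound. Substrate mix (12 uM NADPH, 3.4 mM α-ketoglutarate) is added for 60 min; remaining NAD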

IDH1^R132C = target: T2, IDH1^R132C (Homo sapiens, UniProt O75874, R132C); assay: NADPH depletion assay, IDH1 R132C
T2 construct: purchased not specified
T2 sequence (O75874 whole entry R132C): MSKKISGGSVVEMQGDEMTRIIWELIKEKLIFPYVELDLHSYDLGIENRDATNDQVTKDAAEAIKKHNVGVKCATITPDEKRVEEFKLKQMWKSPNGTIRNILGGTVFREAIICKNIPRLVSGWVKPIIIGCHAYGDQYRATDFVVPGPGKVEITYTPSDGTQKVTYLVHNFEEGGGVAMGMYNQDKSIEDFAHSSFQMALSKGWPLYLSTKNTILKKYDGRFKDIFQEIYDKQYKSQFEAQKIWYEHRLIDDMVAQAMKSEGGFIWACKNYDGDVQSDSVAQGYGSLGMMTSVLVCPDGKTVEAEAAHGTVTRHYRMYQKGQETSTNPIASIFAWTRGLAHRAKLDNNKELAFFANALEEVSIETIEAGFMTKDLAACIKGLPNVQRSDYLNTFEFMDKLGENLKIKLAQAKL
Outline: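 IDH1 R132C (2 nM) preincubated 15 min at RT with compound in Tris-HCl pH 7.6/MgCl2 buffer, then 60 min RT with NADPH and 0.14 mM alpha-ketoglutarate. Remaining NADPH read by diaphorase/resazurin fluorescence (Ex544/Em590).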

IDH2^R172K = target: T3, IDH2^R172K (Homo sapiens, UniProt P48735, R172K); assay: NADPH depletion assay, IDH2 R172K
T3 construct: purchased not specified
T3 sequence (P48735 40-452 R172K): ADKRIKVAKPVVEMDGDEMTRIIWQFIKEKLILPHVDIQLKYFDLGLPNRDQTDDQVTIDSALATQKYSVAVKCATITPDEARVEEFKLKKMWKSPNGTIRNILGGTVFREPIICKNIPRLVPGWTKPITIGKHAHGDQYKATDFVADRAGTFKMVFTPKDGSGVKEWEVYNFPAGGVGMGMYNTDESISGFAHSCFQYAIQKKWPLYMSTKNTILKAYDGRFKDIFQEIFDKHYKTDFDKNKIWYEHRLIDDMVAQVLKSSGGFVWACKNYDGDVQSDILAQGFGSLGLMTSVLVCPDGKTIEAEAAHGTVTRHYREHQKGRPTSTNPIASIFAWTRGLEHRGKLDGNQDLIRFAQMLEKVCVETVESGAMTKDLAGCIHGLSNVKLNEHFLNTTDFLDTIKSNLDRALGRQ
Protocol: IDH mutated enzyme activity converting alpha-ketoglutarate to 2-hydroxyglutaric acid is measured using a NADPH depletion assay. In the assay the remaining cofactor is measured at the end of the reaction with the addition of a catalytic excess of diaphorase and resazurin, to generate a fluorescent signal in proportion to the amount of NADPH remaining. IDH1 WT enzyme as well as mutated isoforms IDH1^R132H, IDH1^R132C, and IDH^2R172K enzymes are commercially available proteins (see e.g. Sino Biological, Abcam, Active Motif or Creative BioMart).
IDH1^R132H homodimer enzyme are diluted to 8 nM, in 10 μL of Assay Buffer (150 mM NaCl, 50 mM Tris-HCl pH 7.6, 10 mM MgCl2, 0.001% Triton X-100, 4 mM β-mercaptoethanol); 0.2 uL of test compound, previously serially diluted 1 to 3, >10 experimental points from 1 mM in DMSO, is added and the mixture is incubated for 15 minutes at room temperature. The reaction is started with the addition of 10 μL of Substrate Mix (12 uM NADPH, 3.4 mM alpha-ketoglutarate in Assay Buffer) and the mixture is incubated for 60 minutes at room temperature. The reaction is terminated with the addition of 5 μl of Detection Buffer (100 μg/mL diaphorase, 30 μM resazurin, in IX Assay Buffer), and is incubated for 15 minute before reading on a ViewLux as platereader at Ex544/Em590.
Compounds are assayed for their activity against IDH2^R172K following the same assay as above with the following modifications: IDH2^R172K and alpha-ketoglutarate final concentrations in the Assay Buffer is 16 nM and 0.55 mM, respectively.

T1 sequence (O75874 whole entry R132H): as the sequence (O75874 whole entry R132C) above, with C132H counted along it

Row | IC50 [1] | IC50 (IDH1^R132C) | IC50 (IDH2^R172K) | SMILES
1 | 3340 nM | 1340 nM | 6650 nM | COC(=O)c1ccc([C@H](C)Nc2ncc3ccc(=O)n(Cc4ccc(F)cc4)c3n2)cc1 [cpd 6, methyl 4-[(1S)-1-{[8-(4-fluorobenzyl)-7-oxo-pyrido[2,3-d]pyrimidin-2-yl]amino}ethyl]benzoate]
2 | 362 nM | 181 nM | 6100 nM | COC(=O)c1ccc([C@H](C)Nc2ncc3ccc(=O)n(CC(C)(C)C)c3n2)cc1 [cpd 11, methyl 4-[(1S)-1-{[8-(2,2-dimethylpropyl)-7-oxo-pyrido[2,3-d]pyrimidin-2-yl]amino}ethyl]benzoate]
3 | 3480 nM | 1780 nM | 5020 nM | CCn1c(=O)ccc2cnc(N[C@@H](C)C3CCCCC3)nc21 [cpd 12, 2-{[(1S)-1-cyclohexylethyl]amino}-8-ethylpyrido[2,3-d]pyrimidin-7(8H)-one]
4 | 1740 nM | 850 nM | 5730 nM | CCn1c(=O)ccc2cnc(N[C@@H](C)c3ccc(Cl)cc3)nc21 [cpd 14, 2-{[(1S)-1-(4-chlorophenyl)ethyl]amino}-8-ethylpyrido[2,3-d]pyrimidin-7(8H)-one]
5 | 1000 nM | 460 nM | 2700 nM | C[C@H](Nc1ncc2ccc(=O)n(Cc3ccccc3)c2n1)c1ccc(Cl)cc1 [cpd 16, 8-benzyl-2-{[(1S)-1-(4-chlorophenyl)ethyl]amino}pyrido[2,3-d]pyrimidin-7(8H)-one]
6 | 410 nM | 203 nM | 6680 nM | CC(C)Cn1c(=O)ccc2cnc(N[C@@H](C)c3ccc(Cl)cc3)nc21 [cpd 19, 2-{[(1S)-1-(4-chlorophenyl)ethyl]amino}-8-(2-methylpropyl)pyrido[2,3-d]pyrimidin-7(8H)-one]
7 | 740 nM | 332 nM | 5020 nM | C[C@H](Nc1ncc2ccc(=O)n(CC3CC3)c2n1)c1ccc(Cl)cc1 [cpd 20, 2-{[(1S)-1-(4-chlorophenyl)ethyl]amino}-8-(cyclopropylmethyl)pyrido[2,3-d]pyrimidin-7(8H)-one]
8 | 451 nM | 195 nM | 2990 nM | C[C@H](Nc1ncc2ccc(=O)n(Cc3ccccc3F)c2n1)c1ccc(Cl)cc1 [cpd 22, 2-{[(1S)-1-(4-chlorophenyl)ethyl]amino}-8-(2-fluorobenzyl)pyrido[2,3-d]pyrimidin-7(8H)-one]
9 | 2090 nM | 891 nM | 3490 nM | C[C@H](Nc1ncc2ccc(=O)n(Cc3ccc(F)c(F)c3)c2n1)c1ccc(Cl)cc1 [cpd 23, 2-{[(1S)-1-(4-chlorophenyl)ethyl]amino}-8-(3,4-difluorobenzyl)pyrido[2,3-d]pyrimidin-7(8H)-one]
10 | 211 nM | – | 5050 nM | C[C@H](Nc1ncc2ccc(=O)n(CC(C)(C)CO)c2n1)c1ccc(Br)cc1 [cpd 35, 2-{[(1S)-1-(4-bromophenyl)ethyl]amino}-8-(3-hydroxy-2,2-dimethylpropyl)pyrido[2,3-d]pyrimidin-7(8H)-one]
11 | 42 nM | 32 nM | – | CC(C)[C@H](C)n1c(=O)ccc2cnc(N[C@@H](C)c3ccc(N4CCN(C(=O)OCc5ccccc5)CC4)cc3)nc21 [cpd 174, Benzyl-4-{4-[(1S)-1-({8-[(2S)-3-methylbutan-2-yl]-7-oxo-7,8-dihydropyrido[2,3-d]pyrimidin-2-yl}amino)ethyl]phenyl}piperazine-1-carboxylate]
12 | 3510 nM | 1910 nM | – | CC(C)[C@H](C)n1c(=O)ccc2cnc(N[C@@H](C)c3ccc(N4CCNCC4)cc3)nc21 [cpd 176, 8-[(2S)-3-methylbutan-2-yl]-2-({(1S)-1-[4-(piperazin-1-yl)phenyl]ethyl}amino)pyrido[2,3-d]pyrimidin-7(8H)-one]
13 | 978 nM | 401 nM | – | CCN1CCN(c2ccc([C@H](C)Nc3ncc4ccc(=O)n([C@@H](C)C(C)C)c4n3)cc2)CC1 [cpd 177, 2-({(1S)-1-[4-(4-ethylpiperazin-1-yl)phenyl]ethyl}amino)-8-[(2S)-3-methylbutan-2-yl]pyrido[2,3-d]pyrimidin-7(8H)-one]
14 | 103 nM | 61 nM | – | C=CC(=O)N1CCN(Cc2ccc([C@H](C)Nc3ncc4ccc(=O)n(CCN=[N+]=[N-])c4n3)cc2)CC1 [cpd 182, 2-{[(1S)-1-{4-[(4-acryloylpiperazin-1-yl)methyl]phenyl}ethyl]amino}-8-(2-azidoethyl)pyrido[2,3-d]pyrimidin-7(8H)-one]
15 | 2370 nM | 1270 nM | – | CCn1c(=O)ccc2cnc(N[C@@H](C)c3ccc(CN4CCN(C(=O)OC(C)(C)C)CC4)cc3)nc21 [cpd 185, tert-butyl 4-(4-{(1S)-1-[(8-ethyl-7-oxo-7,8-dihydropyrido[2,3-d]pyrimidin-2-yl)amino]ethyl}benzyl)piperazine-1-carboxylate]
16 | 330 nM | 120 nM | – | CC(C)[C@H](C)n1c(=O)ccc2cnc(N[C@@H](C)c3ccc(CN4CCN(C)C(=O)C4)cc3)nc21 [cpd 188, 8-[(2S)-3-methylbutan-2-yl]-2-{[(1S)-1-{4-[(4-methyl-3-oxopiperazin-1-yl)methyl]phenyl}ethyl]amino}-pyrido [2,3-d]pyrimidin-7(8H)-one]
17 | 3770 nM | 811 nM | – | CCn1c(=O)ccc2cnc(N[C@@H](C)c3ccc(C(=O)N4CCN(C(=O)OC(C)(C)C)CC4)cc3)nc21 [cpd 189, tert-butyl 4-(4-{(1S)-1-[(8-ethyl-7-oxo-7,8-dihydropyrido[2,3-d]pyrimidin-2-yl)amino]ethyl}benzoyl)piperazine-1-carboxylate]
18 | 126 nM | 89 nM | – | CC(C)[C@H](C)n1c(=O)ccc2cnc(N[C@@H](C)c3ccc(C4=CCN(C(=O)OC(C)(C)C)CC4)cn3)nc21 [cpd 193, tert-butyl 6-[(1S)-1-({8-[(2S)-3-methylbutan-2-yl]-7-oxo-7,8-dihydropyrido[2,3-d]pyrimidin-2-yl}amino)ethyl]-3′,6′-dihydro-3,4′-bipyridine-1′(2′H)-carboxylate]
19 | 593 nM | 184 nM | – | CC(C)[C@H](C)n1c(=O)ccc2cnc(N[C@@H](C)c3ccc(C4=CCN(C(=O)C5CC5)CC4)cn3)nc21 [cpd 195, 2-({(1S)-1-[1′-(cyclopropylcarbonyl)-1′,2′,3′,6′-tetrahydro-3,4′-bipyridin-6-yl]ethyl}amino)-8-[(2S)-3-methylbutan-2-yl]pyrido[2,3-d]pyrimidin-7(8H)-one]
20 | 955 nM | 141 nM | – | CC(C)[C@H](C)n1c(=O)ccc2cnc(N[C@@H](C)c3ccc(-c4ccnc(C(F)(F)F)c4)cn3)nc21 [cpd 196, 8-[(2S)-3-methylbutan-2-yl]-2-({(1S)-1-[2′-(trifluoromethyl)-3,4′-bipyridin-6-yl]ethyl}amino)pyrido[2,3-d]pyrimidin-7(8H)-one]
21 | 2340 nM | 405 nM | – | CC(C)[C@H](C)n1c(=O)ccc2cnc(N[C@@H](C)c3ccc(-c4ccnc(F)c4)cn3)nc21 [cpd 197, 2-{[(1S)-1-(2′-fluoro-3,4′-bipyridin-6-yl)ethyl]amino}-8-[(2S)-3-methylbutan-2-yl]pyrido[2,3-d]pyrimidin-7(8H)-one]
22 | 420 nM | 173 nM | – | C=CC(=O)N1CCN(Cc2ccc([C@H](C)Nc3nc(OCC)c4ccc(=O)n(CC(C)(C)C)c4n3)cc2)CC1 [cpd 201, 2-{[(1S)-1-{4-[(4-acryloylpiperazin-1-yl)methyl]phenyl}ethyl]amino}-8-(2,2-dimethylpropyl)-4-ethoxypyrido[2,3-d]pyrimidin-7(8H)-one]
23 | 666 nM | 104 nM | – | C=CC(=O)N1CCN(Cc2ccc([C@H](C)Nc3nc(NC)c4ccc(=O)n(CC(C)(C)C)c4n3)cc2)CC1 [cpd 202, 2-{[(1S)-1-{4-[(4-acryloylpiperazin-1-yl)methyl]phenyl}ethyl]amino}-8-(2,2-dimethylpropyl)-4-(methylamino) pyrido[2,3-d]pyrimidin-7(8H)-one]
